The values below come from US20250368617A1, “NOVEL RAS INHIBITORS” (KHR BIOTEC GMBH, priority 2022, published 2025).

The term IC50 denotes the concentration that inhibits the measured activity by half. A higher IC50 goes with lower potency.

Each structure is given as a SMILES string.

Assay [1] has as its target T1, KRAS G12V (Homo sapiens, UniProt P01116, G12V).
T1 construct: K, N and HRAS G12V (full length) was cloned with Xho I and BgI II to LgBit; expressed in transfected cells
As to the kind of experiment: NanoBit assay for RAS activation (LgBiT-KRAS G12V / SmBiT-CRAF RAS binding domain). To be noted: KRAS G12V with CRAF RBD (1-149); 2 h with inhibitor in serum free DMEM; DMSO set as 1. In kind it is cell-based. As for the experimental part: (§1) FIGS. 1a) and 1b): NanoBit assay for RAS activation (KRAS G12V, NRAS G12V, HRAS G12V) N-terminal LgBiT and C-terminal SmBiT construct was purchased from Promega and K, N and HRAS G12V (full length) was cloned with Xho I and BgI II to LgBit and CRAF RAS binding domain (1-149) was cloned with EcoRI and BgI II to SmBit. For transfections, 1 μg or 2 μg of (12 well/6 well) plasmids were transfected into cells with 0.5 mM of PEI reagent in 100 μl or 200 μl PBS. One day after transfection, cells were harvested and seeded into 96 well white plates, half area (Greiner). After an additional day the medium was changed to serum free DMEM and the cells were incubated for 2 h with inhibitors. NanoGlo assay was performed according to the manufacturer's instructions. The luminescence was measured using Tecan infinite (Tecan). DMSO-treated cells were set as 1. The results shown are mean mean±SEM from at least 3 independent experiments.

Assay [2] deals with NCI-H2122 cells. As to the kind of experiment: Soft agar colony formation assay with MTT staining. It is filed as cell-based. The note with it: Homo sapiens, growth in soft agar, absorbance at 570 nm. The protocol: (§2) Metabolic activity was quantified using Cell Proliferation Kit I (Roche, Basel, Switzerland). Cells were seeded in 96-well cell culture plates, using 5000 cells per well for NCI-H358 cells. After treatment, 10 μl of MTT solution was added and incubated for 2 h in CO2 incubator. Then 100 μl of solubilization buffer was added to each well and incubated overnight in CO2 incubator. Cell viability, assessed by the amount of metabolized MTT, was quantified by measuring absorbance at 570 nm.
(§3) MTT assay for the growth of different tumor cell lines with RAS mutations in soft agar with GSK2126458. Shown are data from three independent experiments.
(§4) NCI-H358, H358, H2122, ASPC-1, HCT-116, T24 and HT1080 cells were used for the soft […] agar colony formation assay. After the treatment with GSK2126458, the colonies were stained with MTT and the value was quantified by measuring absorbance at 570 nm after solubilization. The results represent mean±SD from 3 independent experiments.

Assay [3] relates to ASPC1 cells. As to the kind of experiment: Soft agar colony formation assay with MTT staining. In kind it is cell-based. The note with it: Homo sapiens, growth in soft agar, absorbance at 570 nm. As for the experimental part: as §2, §3, §4
For assay [4], the system named is HT1080 cells. The assay is described as follows: Soft agar colony formation assay with MTT staining. The note with it: Homo sapiens, HT-1080, growth in soft agar, absorbance at 570 nm. It is filed as cell-based. The protocol: as §2, §3, §4
The test system of assay [5] is T24 cells. The assay is described as follows: Soft agar colony formation assay with MTT staining. In kind it is cell-based. The note with it: Homo sapiens, T-24, growth in soft agar, absorbance at 570 nm. The protocol:
as §2, §3, §4

The subject of assay [6] is NCI-H358 cells. As to the kind of experiment: Soft agar colony formation assay with MTT staining. It is filed as cell-based. To be noted: Homo sapiens, growth in soft agar, absorbance at 570 nm. The protocol:
as §2, §3, §4

The subject of assay [7] is HCT-116 cells. The assay is described as follows: Soft agar colony formation assay with MTT staining. It is filed as cell-based. To be noted: Homo sapiens, growth in soft agar, absorbance at 570 nm. The protocol: as §2, §3, §4
Assay [8] concerns the target T2, NRAS G12V (Homo sapiens, UniProt P01111, G12V).
T2 construct: K, N and HRAS G12V (full length) was cloned with Xho I and BgI II to LgBit; expressed in transfected cells
As to the kind of experiment: NanoBit assay for RAS activation (LgBiT-NRAS G12V / SmBiT-CRAF RAS binding domain). It is filed as cell-based. The note with it: NRAS G12V with CRAF RBD (1-149); 2 h with inhibitor in serum free DMEM; DMSO set as 1. As for the experimental part: as §1

Assay [9] relates to sNF96.2. The assay is described as follows: RASOpathie-Model; MTT assay for cell viability in 96 well cell culture plate (FIG. 5). It is filed as cell-based. To be noted: 48 h treatment. The protocol: as §2
FIG. 5: RASOpathie-Model of GSK2126458; MTT assay for cell viability in 96 well cell culture plate
Cells were treated with GSK2126458 for 48 h and cell viability was evaluated by MTT assay. DMSO-treated cells were set as 1. The results shown are mean±SEM from 3 independent experiments.
A general note: Tetrazolium dyes change colour on reduction, which living cells bring about.

Assay [10] relates to LgBit-KRAS mutants (G12V, G12C, G12D, G12C/Y96D, G13C, G13D, G13S, Q61K and Q61R). The assay is described as follows: NanoBit assay for inhibition of RAS activation, KRAS mutants in HeLa cells. It is filed as cell-based. To be noted: LgBit-KRAS mutants and SmBit-CRAF-RBD, 2 h in serum-free DMEM. The protocol:
FIG. 3: NanoBit assay for inhibition of RAS activation (G12V, G12C, G12D, G12C/Y96D, G13C, G13D, G13S, Q61K and Q61R)
NanoBiT assay for the RAS GTP-loading was performed in HeLa cells transfected with LgBit-KRAS mutants and SmBit-CRAF-RBD. Cells were treated with GSK2126458 according to the invention for 2 h in serum-free DMEM. After incubation, the substrate for NanoLuc was added, and the luminescence was measured in a multiplate reader. Data were normalized to cells transfected with the indicated mutant and exposed to DMSO for 2 h. DMSO-treated cells were set as 1. The bars represent mean±SEM from 3 independent experiments.

Assay [11] deals with p110a, p110β, p110γ, p110σ, and the mTOR1 and mTOR2 complexes and DNA-PK. To be noted: ATP-competitive, reversible; cited from earlier work.
The target of assay [12] is T3, HRAS G12V (Homo sapiens, UniProt P01112, G12V).
T3 construct: K, N and HRAS G12V (full length) was cloned with Xho I and BgI II to LgBit; expressed in transfected cells
The assay is described as follows: NanoBit assay for RAS activation (LgBiT-HRAS G12V / SmBiT-CRAF RAS binding domain). To be noted: HRAS G12V with CRAF RBD (1-149); 2 h with inhibitor in serum free DMEM; DMSO set as 1. In kind it is cell-based. As for the experimental part:
as §1

Assay [13] deals with KRAS dependent cells. As to the kind of experiment: MTT assay for cell viability in 96 well cell culture plate (FIG. 4). In kind it is cell-based. To be noted: 48 h treatment; incl. G12C/Y96D mutation; DMSO set as 1. The protocol:
as §2
FIG. 4: MTT assay for cell viability in 96 well cell culture plate Cells were treated with GSK2126458 for 48 h and cell viability was evaluated by MTT assay. […]. DMSO-treated cells were set as 1. The results shown are mean±SEM from 3 independent experiments.

T3 sequence (P01112 1-186 G12V limits assumed): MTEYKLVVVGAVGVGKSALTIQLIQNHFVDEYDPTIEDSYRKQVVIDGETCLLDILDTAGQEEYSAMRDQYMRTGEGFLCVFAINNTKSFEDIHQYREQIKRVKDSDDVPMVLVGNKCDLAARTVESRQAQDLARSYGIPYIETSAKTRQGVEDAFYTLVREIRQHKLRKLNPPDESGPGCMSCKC
T2 sequence (P01111 1-186 G12V limits assumed): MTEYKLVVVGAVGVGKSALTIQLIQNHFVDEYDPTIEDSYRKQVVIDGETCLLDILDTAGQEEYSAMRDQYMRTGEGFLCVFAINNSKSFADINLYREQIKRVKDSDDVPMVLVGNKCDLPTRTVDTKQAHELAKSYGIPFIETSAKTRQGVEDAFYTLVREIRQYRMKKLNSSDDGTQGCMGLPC
T1 sequence (P01116 1-186 isoform P01116-2 G12V limits assumed): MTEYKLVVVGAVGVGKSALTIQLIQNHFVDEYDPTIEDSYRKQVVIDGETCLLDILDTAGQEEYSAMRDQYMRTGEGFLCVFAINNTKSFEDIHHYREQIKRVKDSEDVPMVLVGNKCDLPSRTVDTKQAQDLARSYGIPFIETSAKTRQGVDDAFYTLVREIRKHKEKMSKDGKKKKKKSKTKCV

In the case of `COc1ncc(-c2ccc3nccc(-c4ccnnc4)c3c2)cc1NS(=O)(=O)c1ccc(F)cc1F` [GSK2126458, 2,4-Difluoro-N-[2-methoxy-5-[4-(4-pyridazinyl)-6-quinolinyl]-3-pyridinyl]benzenesulfonamide], the “inhibition of K-RAS activation (NanoBit luminescence)” value in assay [1] was “inhibits”. Moreover, the IC50 in [2] is 4.51 µM; in assay [3], 10.8 µM; in [4], 86.9 µM; in assay [5], 228 µM; in assay [6], 11.5 µM; in [7], 47.4 µM. Also, the IC50 in assay [9] turned out to be 3.8 µM. Further, the “inhibition of N-RAS activation (NanoBit luminescence)” value in [8] is reported as “inhibits”. Moreover, the “inhibition of RAS activation (RAS GTP-loading, NanoBiT)” value in assay [10] is recorded as “inhibits different RAS-isoforms”. Also, in [11], the “activity against PI3K isoforms, mTOR complexes and DNA-PK” value is “subnanomolar activity”. The “inhibition of H-RAS activation (NanoBit luminescence)” value in [12] was “inhibits”. In addition, the “cell viability (MTT)” value in assay [13] is listed as “inhibits KRAS dependent cells irrespective of the presence of mutation”.
